Measurements reported in the supplement of paper PMC10883282.
± gives the standard deviation of the averaged measurements.

What was measured:
Assay in all cases: relative viability vs DMSO control (72 h) (fraction); higher = more viable cells
HT1080 = system: HT1080
How it was run: (§1)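 Sarcoma cell lines were seeded in 384-well plates at densities set to reach 80–90% confluence. After 24 h, 2.5 µl of serially diluted compound was added (source plates 10 mM to 0.0002 mM), and plates were held 72 h at 37 °C, 5% CO2, with 0.1% DMSO vehicle and a 5 µM positive control. Relative viability came from ATPLite readings as percent growth, averaged over up to triplicate wells. Data were rescaled so full viability equals 1 and none equals 0.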

KHOS-NP = system: KHOS-NP
How it was run: as §1

SK-ES-1 = system: SK-ES-1
How it was run: as §1

RD-ES = system: RD-ES
How it was run: as §1

SW982 = system: SW982
How it was run: as §1

KHOS-240S = system: KHOS-240S
How it was run: as §1

G401 = system: G401
How it was run: as §1

A204 = system: A204
How it was run: as §1

SW1353 = system: SW1353
How it was run: as §1

SW872 = system: SW872
How it was run: as §1

SYO-1 = system: SYO-1
How it was run: as §1

SW684 = system: SW684
How it was run: as §1

CC1(COc2ccc3c(c2)ncn3-c2ccc3cccc(N4CCC(N)CC4)c3n2)COC1 [Crenolanib]
Settings	relative viability
A204, 0.00017 µM	1.085 ± 0.0048
A204, 0.00051 µM	1.07 ± 0.04
A204, 0.00152 µM	1.08 ± 0.019
A204, 0.00457 µM	1.05 ± 0.045
A204, 0.01372 µM	1.01 ± 0.057
A204, 0.04115 µM	0.819 ± 0.074
A204, 0.1235 µM	0.594 ± 0.05
A204, 0.3704 µM	0.457 ± 0.017
A204, 1.111 µM	0.403 ± 0.027
A204, 3.333 µM	0.326 ± 0.058
A204, 10 µM	0.016 ± 0.0056
G401, 0.00017 µM	0.968 ± 0.016
G401, 0.00051 µM	0.935 ± 0.022
G401, 0.00152 µM	0.951 ± 0.053
G401, 0.00457 µM	0.942 ± 0.02
G401, 0.01372 µM	0.955 ± 0.028
G401, 0.04115 µM	0.981 ± 0.038
G401, 0.1235 µM	0.972 ± 0.025
G401, 0.3704 µM	0.99 ± 0.022
G401, 1.111 µM	0.95 ± 0.017
G401, 3.333 µM	0.934 ± 0.024
G401, 10 µM	0.0201 ± 0.0027
HT1080, 0.00017 µM	1.01 ± 0.028
HT1080, 0.00051 µM	1.03 ± 0.016
HT1080, 0.00152 µM	1.04 ± 0.012
HT1080, 0.00457 µM	1.03 ± 0.028
HT1080, 0.01372 µM	1.02 ± 0.018
HT1080, 0.04115 µM	1.02 ± 0.043
HT1080, 0.1235 µM	1.02 ± 0.027
HT1080, 0.3704 µM	1.05 ± 0.017
HT1080, 1.111 µM	1.04 ± 0.019
HT1080, 3.333 µM	0.811 ± 0.028
HT1080, 10 µM	0.0545 ± 0.022
KHOS-240S, 0.00017 µM	0.97 ± 0.038
KHOS-240S, 0.00051 µM	0.957 ± 0.057
KHOS-240S, 0.00152 µM	1.01 ± 0.015
KHOS-240S, 0.00457 µM	1.02 ± 0.024
KHOS-240S, 0.01372 µM	1.01 ± 0.043
KHOS-240S, 0.04115 µM	1.023 ± 0.0081
KHOS-240S, 0.1235 µM	0.986 ± 0.048
KHOS-240S, 0.3704 µM	0.963 ± 0.023
KHOS-240S, 1.111 µM	0.844 ± 0.019
KHOS-240S, 3.333 µM	0.476 ± 0.023
KHOS-240S, 10 µM	0.134 ± 0.0096
KHOS-NP, 0.00017 µM	1.05 ± 0.025
KHOS-NP, 0.00051 µM	1.03 ± 0.021
KHOS-NP, 0.00152 µM	1.02 ± 0.016
KHOS-NP, 0.00457 µM	1.05 ± 0.038
KHOS-NP, 0.01372 µM	1.03 ± 0.046
KHOS-NP, 0.04115 µM	1.01 ± 0.058
KHOS-NP, 0.1235 µM	0.998 ± 0.09
KHOS-NP, 0.3704 µM	0.946 ± 0.12
KHOS-NP, 1.111 µM	0.765 ± 0.063
KHOS-NP, 3.333 µM	0.605 ± 0.059
KHOS-NP, 10 µM	0.511 ± 0.037
RD-ES, 0.00017 µM	0.949 ± 0.026
RD-ES, 0.00051 µM	0.958 ± 0.043
RD-ES, 0.00152 µM	0.957 ± 0.047
RD-ES, 0.00457 µM	0.975 ± 0.034
RD-ES, 0.01372 µM	0.958 ± 0.044
RD-ES, 0.04115 µM	0.969 ± 0.029
RD-ES, 0.1235 µM	0.97 ± 0.035
RD-ES, 0.3704 µM	0.994 ± 0.018
RD-ES, 1.111 µM	0.915 ± 0.025
RD-ES, 3.333 µM	0.359 ± 0.0094
RD-ES, 10 µM	0.255 ± 0.031
SK-ES-1, 0.00017 µM	0.997 ± 0.017
SK-ES-1, 0.00051 µM	0.993 ± 0.05
SK-ES-1, 0.00152 µM	1.01 ± 0.017
SK-ES-1, 0.00457 µM	1.05 ± 0.03
SK-ES-1, 0.01372 µM	1.02 ± 0.027
SK-ES-1, 0.04115 µM	1.02 ± 0.031
SK-ES-1, 0.1235 µM	1.014 ± 0.0023
SK-ES-1, 0.3704 µM	0.949 ± 0.057
SK-ES-1, 1.111 µM	0.675 ± 0.039
SK-ES-1, 3.333 µM	0.188 ± 0.017
SK-ES-1, 10 µM	0.0214 ± 0.0015
SW684, 0.00017 µM	1.02 ± 0.053
SW684, 0.00051 µM	1.05 ± 0.038
SW684, 0.00152 µM	1.08 ± 0.07
SW684, 0.00457 µM	1.04 ± 0.035
SW684, 0.01372 µM	1.04 ± 0.018
SW684, 0.04115 µM	1.05 ± 0.041
SW684, 0.1235 µM	1.08 ± 0.067
SW684, 0.3704 µM	1.1 ± 0.06
SW684, 1.111 µM	1.15 ± 0.055
SW684, 3.333 µM	0.978 ± 0.05
SW684, 10 µM	0.423 ± 0.014
SW872, 0.00017 µM	1.03 ± 0.037
SW872, 0.00051 µM	1.01 ± 0.016
SW872, 0.00152 µM	1.03 ± 0.027
SW872, 0.00457 µM	1.06 ± 0.011
SW872, 0.01372 µM	1.05 ± 0.019
SW872, 0.04115 µM	1.02 ± 0.031
SW872, 0.1235 µM	1.01 ± 0.035
SW872, 0.3704 µM	0.988 ± 0.029
SW872, 1.111 µM	0.95 ± 0.031
SW872, 3.333 µM	0.786 ± 0.039
SW872, 10 µM	0.0216 ± 0.0044
SW982, 0.00017 µM	0.937 ± 0.021
SW982, 0.00051 µM	0.9575 ± 0.0066
SW982, 0.00152 µM	0.947 ± 0.037
SW982, 0.00457 µM	0.974 ± 0.034
SW982, 0.01372 µM	0.965 ± 0.035
SW982, 0.04115 µM	0.971 ± 0.035
SW982, 0.1235 µM	0.969 ± 0.018
SW982, 0.3704 µM	0.952 ± 0.024
SW982, 1.111 µM	0.679 ± 0.046
SW982, 3.333 µM	0.352 ± 0.075
SW982, 10 µM	0.0115 ± 0.0025
SW1353, 0.00017 µM	0.968 ± 0.022
SW1353, 0.00051 µM	0.959 ± 0.029
SW1353, 0.00152 µM	0.938 ± 0.062
SW1353, 0.00457 µM	0.97 ± 0.014
SW1353, 0.01372 µM	0.949 ± 0.031
SW1353, 0.04115 µM	0.917 ± 0.026
SW1353, 0.1235 µM	0.92 ± 0.013
SW1353, 0.3704 µM	0.84 ± 0.035
SW1353, 1.111 µM	0.813 ± 0.017
SW1353, 3.333 µM	0.683 ± 0.018
SW1353, 10 µM	0.009 ± 0.00096
SYO-1, 0.00017 µM	0.974 ± 0.045
SYO-1, 0.00051 µM	0.983 ± 0.022
SYO-1, 0.00152 µM	0.996 ± 0.022
SYO-1, 0.00457 µM	0.998 ± 0.026
SYO-1, 0.01372 µM	0.953 ± 0.054
SYO-1, 0.04115 µM	0.867 ± 0.041
SYO-1, 0.1235 µM	0.785 ± 0.01
SYO-1, 0.3704 µM	0.787 ± 0.052
SYO-1, 1.111 µM	0.659 ± 0.015
SYO-1, 3.333 µM	0.307 ± 0.0045
SYO-1, 10 µM	-0.023 ± 0.0067
